In patent US20260250250A1, “3-(SULPHONYL OR SULFONIMIDOYL)PROP-2-EN-1-YL]-2-OXO-1,2-DIHYDROPYRIDINE-3-CARBOXAMIDE DERIVATIVES” (Flinder Therapeutics B.V., priority 2022, published 2026):

Columns and labels:
NF-κB signaling pathway = experiment: Cell-based dual luciferase NF-κB reporter assay (HEK293 cells, TNF stimulated); conditions: Homo sapiens, HEK293
In short: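 HEK293 cells transfected with Firefly luciferase and NF-κB-response-element NanoLuc plasmids; compounds at 100–0.005 µM in 1% DMSO. Cells stimulated with 2.5 ng/mL TNF 30 min after compound addition. Firefly and NanoLuc activities read after 6 h by Nano-Glo dual-luciferase detection.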

[1] = target: T1, human E3 ubiquitin-protein ligase RNF31 (HOIP) (Homo sapiens, UniProt Q96EP0); experiment: Cell-free HTRF-based HOIP inhibition assay; type: biochemical
T1 sequence (Q96EP0 695-1072 limits assumed): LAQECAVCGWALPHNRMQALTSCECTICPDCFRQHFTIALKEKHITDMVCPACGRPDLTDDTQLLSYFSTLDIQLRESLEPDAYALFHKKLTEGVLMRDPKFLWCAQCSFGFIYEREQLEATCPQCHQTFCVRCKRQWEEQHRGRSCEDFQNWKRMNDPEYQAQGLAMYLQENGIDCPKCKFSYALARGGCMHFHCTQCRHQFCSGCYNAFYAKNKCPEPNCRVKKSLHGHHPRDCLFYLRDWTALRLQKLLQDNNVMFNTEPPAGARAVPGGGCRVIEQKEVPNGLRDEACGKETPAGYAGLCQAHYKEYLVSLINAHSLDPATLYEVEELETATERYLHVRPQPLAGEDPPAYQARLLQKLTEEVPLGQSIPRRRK
In short: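 Recombinant human HOIP fragment (E. coli) preincubated with compounds (100-0.005 μM, 1% DMSO) and E1 for 1 h at 25° C. E2 and substrates then added; reaction 2.5 h at 25° C. HTRF read-out, excitation 337 nm, emissions 665/620 nm.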

[2] = test system: bladder carcinoma RT4 cell line; experiment: TNF-α-induced cytotoxicity assay (CellTiter-Glo viability); type: cell-based; conditions: Homo sapiens, RT-4, 72 h
In short: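 RT4 bladder carcinoma cells, 1000 per well, stimulated with 1.25 ng/mL TNFα together with compound for 72 h at 37° C., 5% CO2. Viability read by CellTiter-Glo luminescence, proportional to cellular ATP, as a measure of HOIP-dependent cytotoxicity.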

Compound	IC50 (NF-κB signaling pathway) [nM]	IC50 [1] [nM]	IC50 [2] [nM]
O=C(NC/C=C/S(=O)(=O)c1ccccc1)c1cc2c([nH]c1=O)CCN(C(=O)C1CC1)C2 [Example 109, N-[(2E)-3-(benzenesulfonyl)prop-2-en-1-yl]-6-cyclopropanecarbonyl-2-oxo-1,2,5,6,7,8-hexahydro-1,6-naphthyridine-3-carboxamide]	≤ 100000	≤ 1000	≤ 100000
O=C(NC/C=C/S(=O)(=O)c1ccccc1)c1cc2c([nH]c1=O)CCN(C(=O)C13CCC(CC1)C3)C2 [Example 110, N-[(2E)-3-(benzenesulfonyl)prop-2-en-1-yl]-6-{bicyclo[2.2.1]heptane-1-carbonyl}-2-oxo-1,2,5,6,7,8-hexahydro-1,6-naphthyridine-3-carboxamide]	≤ 10000	≤ 1000	≤ 10000
O=C(NC/C=C/S(=O)(=O)c1ccccc1)c1cc2c([nH]c1=O)CCN(C(=O)c1cnn(-c3ccccc3)n1)C2 [Example 112, N-[(2E)-3-(benzenesulfonyl)prop-2-en-1-yl]-2-oxo-6-(2-phenyl-2H-1,2,3-triazole-4-carbonyl)-1,2,5,6,7,8-hexahydro-1,6-naphthyridine-3-carboxamide]	≤ 10000	≤ 1000	≤ 10000
CC1(C(=O)N2CCc3[nH]c(=O)c(C(=O)NC/C=C/S(=O)(=O)c4ccccc4)cc3C2)CCC1 [Example 115, N-[(2E)-3-(benzenesulfonyl)prop-2-en-1-yl]-6-(1-methylcyclobutanecarbonyl)-2-oxo-1,2,5,6,7,8-hexahydro-1,6-naphthyridine-3-carboxamide]	≤ 100000	≤ 1000	≤ 100000
O=C(NC/C=C/S(=O)(=O)c1ccccc1)c1cc2c([nH]c1=O)CCN(C(=O)c1nc(C3CC3)cs1)C2 [Example 116, N-[(2E)-3-(benzenesulfonyl)prop-2-en-1-yl]-6-(4-cyclopropyl-1,3-thiazole-2-carbonyl)-2-oxo-1,2,5,6,7,8-hexahydro-1,6-naphthyridine-3-carboxamide]	≤ 10000	≤ 100	≤ 10000
O=C(NC/C=C/S(=O)(=O)c1ccccc1)c1cc2c([nH]c1=O)CCN(C(=O)CC1CC1)C2 [Example 117, N-[(2E)-3-(benzenesulfonyl)prop-2-en-1-yl]-6-(2-cyclopropylacetyl)-2-oxo-1,2,5,6,7,8-hexahydro-1,6-naphthyridine-3-carboxamide]	≤ 100000	≤ 1000	≤ 100000
CC(C)COC(=O)N1CCc2[nH]c(=O)c(C(=O)NC/C=C/S(=O)(=O)c3ccccc3)cc2C1 [Example 119, 2-methylpropyl 3-{[(2E)-3-(benzenesulfonyl)prop-2-en-1-yl]carbamoyl}-2-oxo-1,2,5,6,7,8-hexahydro-1,6-naphthyridine-6-carboxylate]	≤ 1000	≤ 100	≤ 1000
O=C(NC/C=C/S(=O)(=O)c1ccccc1)c1cc2c([nH]c1=O)CCN(C(=O)OCCc1ccc(Cl)cc1)C2 [Example 122, 2-(4-chlorophenyl)ethyl 3-{[(2E)-3-(benzenesulfonyl)prop-2-en-1-yl]carbamoyl}-2-oxo-1,2,5,6,7,8-hexahydro-1,6-naphthyridine-6-carboxylate]	≤ 1000	≤ 1000	≤ 1000
O=C(NC/C=C/S(=O)(=O)c1ccc(Cl)cc1Cl)c1cc(-c2ccccc2)c[nH]c1=O [Example 126, N-[(2E)-3-(2,4-dichlorobenzenesulfonyl)prop-2-en-1-yl]-2-oxo-5-phenyl-1,2-dihydropyridine-3-carboxamide]	≤ 1000	≤ 100	≤ 10000
O=C(NC/C=C/S(=O)(=O)c1ccc(F)cc1F)c1cc(-c2ccccc2)c[nH]c1=O [Example 127, N-[(2E)-3-(2,4-difluorobenzenesulfonyl)prop-2-en-1-yl]-2-oxo-5-phenyl-1,2-dihydropyridine-3-carboxamide]	≤ 1000	≤ 1000	≤ 10000
O=C(NC/C=C/S(=O)(=O)c1ccc(F)cc1Cl)c1cc(-c2ccccc2)c[nH]c1=O [Example 128, N-[(2E)-3-(2-chloro-4-fluorobenzenesulfonyl)prop-2-en-1-yl]-2-oxo-5-phenyl-1,2-dihydropyridine-3-carboxamide]	≤ 10000	≤ 1000	≤ 10000
N=S(=O)(/C=C/CNC(=O)c1cc2c([nH]c1=O)CCCC2)c1cccc(Cl)c1 (stereo not drawn) [Example 134, N-[(2E)-3-[(3-chlorophenyl)(imino)oxo-λ^6-sulfanyl]prop-2-en-1-yl]-2-oxo-1,2,5,6,7,8-hexahydroquinoline-3-carboxamide]	≤ 1000	≤ 1000	≤ 1000

Second part, led by results:

IC50 (NF-κB signaling pathway) [nM]	IC50 [1] [nM]	Compound	IC50 [2] [nM]
≤ 100000	≤ 1000	CO[C@H]1CC[C@H](C(=O)N2CCc3[nH]c(=O)c(C(=O)NC/C=C/S(=O)(=O)c4ccccc4)cc3C2)CC1 [Example 107, N-[(2E)-3-(benzenesulfonyl)prop-2-en-1-yl]-2-oxo-6-[(1r,4r)-4-methoxycyclohexanecarbonyl]-1,2,5,6,7,8-hexahydro-1,6-naphthyridine-3-carboxamide]	≤ 100000
≤ 100000	≤ 1000	O=C(NC/C=C/S(=O)(=O)c1ccccc1)c1cc2c([nH]c1=O)CCN(C(=O)C1CCOC1)C2 (stereo not drawn) [Example 113, N-[(2E)-3-(benzenesulfonyl)prop-2-en-1-yl]-2-oxo-6-(oxolane-3-carbonyl)-1,2,5,6,7,8-hexahydro-1,6-naphthyridine-3-carboxamide]	≤ 100000
≤ 10000	≤ 1000	CC12CC(C(=O)N3CCc4[nH]c(=O)c(C(=O)NC/C=C/S(=O)(=O)c5ccccc5)cc4C3)(C1)C2 [Example 114, N-[(2E)-3-(benzenesulfonyl)prop-2-en-1-yl]-6-{3-methylbicyclo[1.1.1]pentane-1-carbonyl}-2-oxo-1,2,5,6,7,8-hexahydro-1,6-naphthyridine-3-carboxamide]	≤ 100000
≤ 10000	≤ 1000	CC(C)(C)CC(=O)N1CCc2[nH]c(=O)c(C(=O)NC/C=C/S(=O)(=O)c3ccccc3)cc2C1 [Example 120, N-[(2E)-3-(benzenesulfonyl)prop-2-en-1-yl]-6-(3,3-dimethylbutanoyl)-2-oxo-1,2,5,6,7,8-hexahydro-1,6-naphthyridine-3-carboxamide]	≤ 10000
≤ 1000	≤ 100	Cn1ncc2c(CN3CCc4[nH]c(=O)c(C(=O)NC/C=C/S(=O)(=O)c5ccccc5)cc4C3)cccc21 [Example 121, N-[(2E)-3-(benzenesulfonyl)prop-2-en-1-yl]-6-[(1-methyl-1H-indazol-4-yl)methyl]-2-oxo-1,2,5,6,7,8-hexahydro-1,6-naphthyridine-3-carboxamide]	≤ 10000
≤ 100000	≤ 1000	O=C(NC/C=C/S(=O)(=O)c1ccccc1)c1cc2c([nH]c1=O)CCN(Cc1cccnn1)C2 [Example 123, N-[(2E)-3-(benzenesulfonyl)prop-2-en-1-yl]-2-oxo-6-[(pyridazin-3-yl)methyl]-1,2,5,6,7,8-hexahydro-1,6-naphthyridine-3-carboxamide]	≤ 100000
≤ 10000	≤ 1000	O=C(NC/C=C/S(=O)(=O)c1ccccc1)c1cc2c([nH]c1=O)CCN(C(=O)C1CC1c1ccccc1)C2 (stereo not drawn) [Example 125, N-[(2E)-3-(benzenesulfonyl)prop-2-en-1-yl]-2-oxo-6-(2-phenylcyclopropanecarbonyl)-1,2,5,6,7,8-hexahydro-1,6-naphthyridine-3-carboxamide]	≤ 10000
≤ 1000	≤ 100	N=S(=O)(/C=C/CNC(=O)c1cc2c([nH]c1=O)CCCC2)c1ccc(Cl)cc1 (stereo not drawn) [Example 131, N-[(2E)-3-[(4-chlorophenyl)(imino)oxo-λ^6-sulfanyl]prop-2-en-1-yl]-2-oxo-1,2,5,6,7,8-hexahydroquinoline-3-carboxamide]	≤ 1000
≤ 1000	≤ 1000	N=S(=O)(/C=C/CNC(=O)c1cc2c([nH]c1=O)CCCC2)c1ccccc1F (stereo not drawn) [Example 132, N-[(2E)-3-[(2-fluorophenyl)(imino)oxo-λ^6-sulfanyl]prop-2-en-1-yl]-2-oxo-1,2,5,6,7,8-hexahydroquinoline-3-carboxamide]	≤ 10000
≤ 1000	≤ 100	COc1ccc(S(=N)(=O)/C=C/CNC(=O)c2cc3c([nH]c2=O)CCCC3)cc1Cl (stereo not drawn) [Example 133, N-[(2E)-3-[(3-chloro-4-methoxyphenyl)(imino)oxo-λ^6-sulfanyl]prop-2-en-1-yl]-2-oxo-1,2,5,6,7,8-hexahydroquinoline-3-carboxamide]	≤ 1000
≤ 1000	≤ 1000	N=S(=O)(/C=C/CNC(=O)c1cc2c([nH]c1=O)CCCC2)c1ccc(F)cc1F (stereo not drawn) [Example 135, N-[(2E)-3-[(2,4-difluorophenyl)(imino)oxo-λ^6-sulfanyl]prop-2-en-1-yl]-2-oxo-1,2,5,6,7,8-hexahydroquinoline-3-carboxamide]	≤ 10000
